Legend:
[1] = tested on: human hepatocellular cancer cell line (Hep-3B, Hep-G2, Huh-7 and Alexander); assay: MTT assay, growth inhibition of hepatocellular cancer cell lines; format: cell-based
Method: Four species of human hepatocellular cancer cell line (Hep-3B. Hep-G2, Huh-7 and Alexander) were cultured under humidified atmosphere of 95% air and 5% carbon dioxide, in a Dulbecco Modified Eagle culture medium (DMEM: SIGMA CHEMICAL Co., St. Louis USA) supplemented with 10% fetal bovine serum (FBS), 100 U/ml penicillin G sulphate and 100 μg/ml streptomycin sulphate.
For lecithin (other name: phosphatidylcholine (hereinafter, referred to as simply “PC”), soybean lecithin with a purity of approximately 96.5% was used, and menatetrenone and Kaytwo N (Kaytwo N: registered trade mark; manufactured by Eisai Co. Ltd.) were provided by Eisai Co. Ltd. For the study, cells (Hep-G2: 1×10^4; others: 1×10^3) in a 96-well microtiter plate were cultured one day prior to beginning the experiments. In the MTT assay method, cells in 96-well microtiter were cultured several days (2 to 4 days) in the presence of PC (1×10^−8 to 1×10^−4M) and menatetrenone (1×10^−7 to 1×10^−4 M) or Kaytwo N (registered trade mark; manufactured by Eisai Co. Ltd.) (regarding menatetrenone: […] to 1×10^−4M). […] The survival rate was analyzed by the MTT assay method using the Tetra Color One Kit. […]
Significant differences were evaluated by the Mann-Whitney U test according to StatView 5.0 (Abacus Concepts, Berkley, Calif.). […]

[2] = tested on: human hepatocellular cancer cell lines (Hep-3B, Hep-G2, Huh-7 and the like); conditions: literature; cited from earlier work
[3] = tested on: hepatocellular cancer; conditions: administration after treatment of hepatocellular cancer; cited from earlier work
[4] = cited from earlier work

CC(C)=CCC/C(C)=C/CC/C(C)=C/CC/C(C)=C/CC1=C(C)C(=O)c2ccccc2C1=O [menatetrenone, 2-methyl-3-tetraprenyl-1,4-naphthoquinone]
survival rate ([1]; MTT assay, PC 1×10^−8 to 1×10^−4 M, menatetrenone 1×10^−7 to 1×10^−4 M, culture 2 to 4 days, FIGS. 1A-1C): survival rate decreased in the presence menatetrenone depending on the quantity added
multiplication of human hepatocellular cancer cell lines ([1]; each substance alone): demonstrated an inhibitory effect
growth of human hepatocellular cancer cell lines [2]: inhibitory effect
occurrence of PVI (portal venous invasion) [3]: could be suppressed
prognosis / recurrence of hepatocellular cancer [3]: prognosis could be improved by suppressing the recurrence of hepatocellular cancer
solubility in water [4]: almost insoluble in water

— US20100292186A1, “Pharmaceutical Composition for Treatment or Prevention of Liver Cancer” (National University Corporation Nagoya University, priority 2006, published 2010)
